Measurements reported in publication PMC10577883, “Design and Optimization of Novel Competitive, Non-peptidic, SARS-CoV-2 M^pro Inhibitors” (ACS Medicinal Chemistry Letters, 2023).

Columns and labels:
[1] = Liver microsome metabolite identification (LC-HRMS); assay type: in vitro ADME
Procedure: Figure S15: Stability of 45 in rat liver microsomes (RLM) at 37 °C
Table S17: Stability of 43 in rat liver microsomes (RLM) at 37 °C
Time Response ratio Average RR Rel % ln
Metabolite identification
Procedure for Liver Microsome Metabolite Identification Assay: Test compounds and positive controls were dissolved in 100% DMSO to make 10 mM stock solutions. The 10 mM stock solutions of test and control […]
(1 picture or pasted object on this page, not shown here) […]
compounds were further diluted in potassium phosphate buffer (100 mM, pH 7.4) to 500 μM to ensure that the organic solvent content was < 0.2%. The liver microsome (HLM or MLM) assay was prepared in a 1.5 mL Eppendorf tube with a final volume of […] for duplicate runs. Each reaction contained phosphate buffer (374 μL), liver microsomes (550 μL), and test compound (66 μL of 500 resulting in a final concentration of 30 μM), μM for the […]
test compound. […] Aliquots (100 μL) were removed in […]
MS analysis was performed using full scan from a mass range of 100-700 m/z at 60k resolution with data dependent MS/MS and MSn programs enabled for the top 5 ions detected for each scan. Compounds are detected based on their MS1 precursor ion accurate mass m/z and identified with matching theoretical and observed accurate mass MS1 ions with interpretation of accurate mass MS/MS spectra from expected […]

in vitro [2] = details: human, microsomes
Procedure: Metabolic Stability Assay
(§1) Liver Microsome Stability Assay Protocol
(§2) Human liver microsomes (HLMs, 20 mg/mL), CD-1 mouse liver microsomes (MLMs, 20 mg/mL), Sprague Dawley
(§3) rat liver microsomes (RLMs, 20 mg/mL) were purchased from Xenotech. NADPH was purchased from Sigma-
(§4) Aldrich and prepared in 10 mM stock solutions of distilled H2O (InvitrogenTM UltraPureTM). Verapamil and
(§5) diphenhydramine were both purchased from Sigma-Aldrich and served as positive controls for LM stability assays.
(§6) Test compounds and positive controls were initially dissolved in DMSO to make 10 mM stock solutions. Sample
(§7) solutions were then further diluted in 100% MeCN to 500 μM. Next, the reactions were prepared by mixing human
(§8) or mouse liver microsomes (55 μL) with potassium phosphate buffer (100 mM, 928 μL) in 1.5 mL Eppendorf tubes.
(§9) The test compounds (6.6 μL of 500 μM solution) were subsequently added to the suspensions, and the reaction
(§10) mixtures were incubated at 37 °C for 5 min. Afterward, the liver microsome reactions were initiated with 110 μL
(§11) of 10 mM NADPH and further incubated at 37 °C for the designated time course of the study. This procedure
(§12) provided experiments with a final volume of 1100 μL (0.6% organic solvent content) and a final test compound
(§13) concentration of 3 μM. Aliquots (100 μL) were removed from each reaction mixture in duplicate at 0, 5, 10, 15,
(§14) and 30 min time intervals and quenched with 100 μL of cold internal standard solution (ISTD, 2 μM
(§15) 7-ethoxy-d 5-coumarin in MeOH or MeCN). Quenched aliquots were then centrifuged at 12,500 g for 5-10 min, and
(§16) the resulting supernatants were withdrawn and placed in LC-MS vials to be analyzed by LC-MS/MS (Agilent
(§17) G6460C QQQ MS coupled with an Infinity II 1260 HPLC). Each test compound was run in tandem with positive and
(§18) negative control experiments for quality assurance. Positive control reactions were conducted at a final volume
(§19) of 550 μL for a single run of each time point. Lastly, the negative control experiment was conducted with test
(§20) compounds and liver microsomes in the absence of NADPH (150 μL) and analyzed at the 30 min time point.
(§21) Data Analysis. Each data point was analyzed in triplicate using in-between blank washes to avoid carry over and
(§22) to equilibrate the column for the subsequent runs. Averages of these triplicates for individual compounds at each
(§23) time point were then normalized to the data at 0 min, representing 100% test compound remaining or 0%
(§24) metabolism. Half-lives (t 1/2) were calculated by plotting ln of % test compound remaining versus time and
(§25) performing linear regression to determine slope.
(§26) Instrumentation and LC-MS/MS Method Development
(§27) LC-MS/MS analyses were conducted on an Agilent 1260 Infinity II HPLC equipped with an Agilent G6460 triple
(§28) quadrupole mass spectrometer (Agilent Technologies, USA). Reverse-phase HPLC separation for each compound
(§29) m) column maintained at 40 °C. The mobile phase used during analyses consisted of either MeOH-H2O (0.1% FA)
(§30) or MeCN-H2O (0.1% FA) at a flow rate of 0.5 mL/min. Each method was developed in the presence of the internal
(§31) standard (ISTD), 7-ethoxy-d 5-coumarin. Precursor and product ion detection was performed with Agilent Jet
(§32) Stream electrospray positive ionization (ESI+) in multiple reaction monitoring (MRM) mode. All MRM transitions,
(§33) MS conditions were as follows: dwell time of 100 ms; gas flow of 10 L/min; nebulizer pressure of 45 psi; delta EMV
(§34) of 200 V. Lastly, all acquired data was processed using Agilent 6460 Quantitative Analysis software.

in vitro [3] = details: CD-1, mouse, microsomes
Procedure: Metabolic Stability Assay
as §1, §2, §3, §4, §5, §6, §7, §8, §9, §10, §11, §12, §13, §14, §15, §16, §17, §18, §19, §20, §21, §22, §23, §24, §25, §26, §27, §28, §29, §30, §31, §32, §33, §34

in vitro [4] = details: Sprague-Dawley, rat, microsomes
Procedure: Metabolic Stability Assay
as §1, §2, §3, §4, §5, §6, §7, §8, §9, §10, §11, §12, §13, §14, §15, §16, §17, §18, §19, §20, §21, §22, §23, §24, §25, §26, §27, §28, §29, §30, §31, §32, §33, §34

[5] = system: SARS-CoV-2-Nluc reporter virus; assay: microbe, parasite or virus in culture; assay type: cell-based; details: Severe acute respiratory syndrome coronavirus 2; VeroE6/TMPRSS2 cells; parentheses denote 95% confidence intervals
CYP3A = system: CYP3A; parameters: method as in PMID 37171749; details: cited from earlier work

SMILES	major microsomal metabolite / metabolic route [1]	remaining at 5 min, 3 µM (in vitro [2]) [%]	remaining at 10 min, 3 µM (in vitro [2]) [%]	remaining at 0.25 h, 3 µM (in vitro [2]) [%]	half-life at 3 µM (in vitro [2]; HLM t1/2) [min]	half-life at 3 µM (in vitro [3]) [min]	remaining at 5 min, 3 µM (in vitro [3]) [%]	remaining at 10 min, 3 µM (in vitro [3]) [%]	remaining at 0.25 h, 3 µM (in vitro [3]) [%]	half-life at 3 µM (in vitro [4]) [min]	remaining at 5 min, 3 µM (in vitro [4]) [%]	remaining at 10 min, 3 µM (in vitro [4]) [%]	remaining at 0.25 h, 3 µM (in vitro [4]) [%]	EC50 [5] [µM]	CYP3A inhibition (CYP3A)
Cn1cc(-c2cc(-c3cc(Cl)c(F)c(OCc4ccccc4Cl)c3)c(=O)n(-c3cccnc3)c2)c(=O)[nH]c1=O [Compound 4]	loss of the ortho-chlorobenzyl moiety	46.1	22.7	16.3	7.2	2.4	9.41	5.25	2.96	4.8	63.6	26.6	17.4	–	–
Cn1cnc(Cn2c(=O)[nH]/c(=N\c3cc4cn(C)nc4cc3Cl)n(Cc3cc(F)c(F)cc3F)c2=O)n1 [Compound S-217622, ensitrelvir, reference compound]	–	–	–	–	–	–	–	–	–	–	–	–	–	0.23	strong CYP3A inhibitor
